{"source": "PubChem BioAssay AID1259411", "about": "(Chemical Carcinogenesis Research Information System (CCRIS), 2018)", "test_system": "rodent carcinogenicity bioassays, tumor incidence", "test": "CCRIS carcinogenicity studies", "method_in_brief": "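Archive of carcinogenicity, mutagenicity, tumor promotion and tumor inhibition results drawn from journals, NCI reports and other sources, expert-reviewed; covers 1985-2011 and is no longer updated.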", "note": "Calls of active or inactive are those of the source. The rule behind the calls is not given here.", "data": [{"smiles": "OC(O)C(Cl)(Cl)Cl", "values": [{"measurement": "carcinogen call", "setting": "Species: MOUSE, Strain/Sex: B6C3F1/FEMALE, Route: GAVAGE, Dose: 0, 10, 25, 50 MG/KG BW ONCE AT 15 DAYS OF AGE (STUDY DURATION: 104 WK), Dose: 0, 10, 25, 50 MG/KG BW ONCE AT 15 DAYS OF AGE (STUDY DURATION: 104 WK)", "result": "inactive; negative"}, {"measurement": "carcinogen call", "setting": "Species: MOUSE, Strain/Sex: B6C3F1/FEMALE, Route: GAVAGE, Dose: 0, 25, 50, 100 MG/KG 5 D/WK FOR 104 WK (STUDY DURATION: 104 WK), Dose: 0, 25, 50, 100 MG/KG 5 D/WK FOR 104 WK (STUDY DURATION: 104 WK), Tumor Site: Type of Lesion: PITUITARY GLAND (PARS DISTALIS): ADENOMA", "result": "equivocal"}, {"measurement": "carcinogen call", "setting": "Species: MOUSE, Strain/Sex: B6C3F1/FEMALE, Route: GAVAGE, Dose: 0, 25, 50, 100 MG/KG BW ONCE AT 28 DAYS OF AGE (STUDY DURATION: 104 WK), Dose: 0, 25, 50, 100 MG/KG BW ONCE AT 28 DAYS OF AGE (STUDY DURATION: 104 WK)", "result": "inactive; negative"}, {"measurement": "carcinogen call", "setting": "Species: MOUSE, Strain/Sex: B6C3F1/FEMALE, Route: GAVAGE, Dose: 0, 100 MG/KG BW 5 D/WK FOR 3 MO (STUDY DURATION: 104 WK), Tumor Site: Type of Lesion: PITUITARY GLAND (PARS DISTALIS): ADENOMA", "result": "equivocal"}, {"measurement": "carcinogen call", "setting": "Species: MOUSE, Strain/Sex: B6C3F1/FEMALE, Route: GAVAGE, Dose: 0, 100 MG/KG BW 5 D/WK FOR 6 MO (STUDY DURATION: 104 WK), Tumor Site: Type of Lesion: PITUITARY GLAND (PARS DISTALIS): ADENOMA", "result": "equivocal"}, {"measurement": "carcinogen call", "setting": "Species: MOUSE, Strain/Sex: B6C3F1/FEMALE, Route: GAVAGE, Dose: 0, 100 MG/KG BW 5 D/WK FOR 12 MO (STUDY DURATION: 104 WK), Tumor Site: Type of Lesion: PITUITARY GLAND (PARS DISTALIS): ADENOMA", "result": "equivocal"}, {"measurement": "carcinogen call", "setting": "Species: MOUSE, Strain/Sex: B6C3F1/FEMALE, Route: INTRAPERITONEAL, Dose: 0, 1000 NMOL TOTAL DOSE, 1/3 AND 2/3 OF THE TOTAL DOSE ADMINISTERED AT 8 AND 15 DAYS OF AGE RESPECTIVELY, ANIMALS TERMIN", "result": "inactive; negative"}, {"measurement": "carcinogen call", "setting": "Species: MOUSE, Strain/Sex: B6C3F1/FEMALE, Route: INTRAPERITONEAL, Dose: 0, 2000 NMOL TOTAL DOSE, 3/7 AND 4/7 OF THE TOTAL DOSE ADMINISTERED AT 8 AND 15 DAYS OF AGE RESPECTIVELY, ANIMALS TERMIN", "result": "inactive; negative"}, {"measurement": "carcinogen call", "setting": "Species: MOUSE, Strain/Sex: B6C3F1/MALE, Route: GAVAGE, Dose: 0, 10, 25, 50 MG/KG BW ONCE AT 15 DAYS OF AGE (STUDY DURATION: 104 WK), Dose: 0, 10, 25, 50 MG/KG BW ONCE AT 15 DAYS OF AGE (STUDY DURATION: 104 WK)", "result": "inactive; negative"}, {"measurement": "carcinogen call", "setting": "Species: MOUSE, Strain/Sex: B6C3F1/MALE, Route: GAVAGE, Dose: 0, 25, 50, 100 MG/KG IN WATER 5X/WK FOR STUDY DURATION WITH AD LIBITUM FEEDING (STUDY DURATION: 104-105 WK), Dose: 0, 25, 50, 100 MG/KG IN WATER 5X/WK FOR STUDY DURATION WITH AD LIBITUM FEEDING (STUDY DURATION: 104-105 WK), Tumor Site: Type of Lesion: LIVER: HEPATOCELLULAR ADENOMA OR CARCINOMA", "result": "active; positive"}, {"measurement": "carcinogen call", "setting": "Species: MOUSE, Strain/Sex: B6C3F1/MALE, Route: GAVAGE, Dose: 0, 25, 50, 100 MG/KG IN WATER 5X/WK FOR STUDY DURATION WITH DIETARY-CONTROLLED FEEDING TO MAINTAIN IDEAL BODY WEIGHT (ST, Dose: 0, 25, 50, 100 MG/KG IN WATER 5X/WK FOR STUDY DURATION WITH DIETARY-CONTROLLED FEEDING TO MAINTAIN IDEAL BODY WEIGHT (ST, Tumor Site: Type of Lesion: LIVER: HEPATOCELLULAR ADENOMA OR CARCINOMA", "result": "active; positive"}, {"measurement": "carcinogen call", "setting": "Species: MOUSE, Strain/Sex: B6C3F1/MALE, Route: INTRAPERITONEAL, Dose: 0, 1000 NMOL TOTAL DOSE, 1/3 AND 2/3 OF THE TOTAL DOSE ADMINISTERED AT 8 AND 15 DAYS OF AGE RESPECTIVELY, ANIMALS TERMIN", "result": "inactive; negative"}, {"measurement": "carcinogen call", "setting": "Species: MOUSE, Strain/Sex: B6C3F1/MALE, Route: INTRAPERITONEAL, Dose: 0, 2000 NMOL TOTAL DOSE, 3/7 AND 4/7 OF THE TOTAL DOSE ADMINISTERED AT 8 AND 15 DAYS OF AGE RESPECTIVELY, ANIMALS TERMIN", "result": "inactive; negative"}, {"measurement": "carcinogen call", "setting": "Species: MOUSE, Strain/Sex: B6C3F1/MALE, Route: ORAL, Dose: 0, 0.05, 0.5, 1 G/L IN DRINKING WATER FOR 104 WK (STUDY DURATION: 104 WK), Dose: 0, 0.05, 0.5, 1 G/L IN DRINKING WATER FOR 104 WK (STUDY DURATION: 104 WK), Tumor Site: Type of Lesion: LIVER: HEPATOCELLULAR ADENOMA OR CARCINOMA", "result": "active; positive"}, {"measurement": "carcinogen call", "setting": "Species: MOUSE, Strain/Sex: B6C3F1/MALE, Route: ORAL, Dose: 0, 1 G/L DISTILLED DRINKING WATER FOR STUDY DURATION (166 MG/KG/D) (STUDY DURATION: 104 WK), Tumor Site: Type of Lesion: LIVER: HEPATOCELLULAR CARCINOMA, HEPATOCELLULAR ADENOMA", "result": "active; positive"}, {"measurement": "carcinogen call", "setting": "Species: RAT, Strain/Sex: F344/N/MALE, Route: ORAL, Dose: 0, 0.05, 0.5, 2 G/L IN DRINKING WATER FOR 104 WK (STUDY DURATION: 104 WK), Dose: 0, 0.05, 0.5, 2 G/L IN DRINKING WATER FOR 104 WK (STUDY DURATION: 104 WK)", "result": "inactive; negative"}, {"measurement": "carcinogen call", "setting": "Species: RAT, Strain/Sex: SPRAGUE-DAWLEY/FEMALE, Route: ORAL, Dose: 0, 15, 45, 135 MG/KG BW/D IN DRINKING WATER FOR 128 WK (STUDY DURATION: 128 WK), Dose: 0, 15, 45, 135 MG/KG BW/D IN DRINKING WATER FOR 128 WK (STUDY DURATION: 128 WK)", "result": "inactive; negative"}, {"measurement": "carcinogen call", "setting": "Species: RAT, Strain/Sex: SPRAGUE-DAWLEY/MALE, Route: ORAL, Dose: 0, 15, 45, 135 MG/KG BW/D IN DRINKING WATER FOR 124 WK (STUDY DURATION: 124 WK), Dose: 0, 15, 45, 135 MG/KG BW/D IN DRINKING WATER FOR 124 WK (STUDY DURATION: 124 WK)", "result": "inactive; negative"}]}, {"smiles": "CC(Cl)CCCC(Cl)CCCC(Cl)CCCC(Cl)CCCC(Cl)CCCC(Cl)CCCl", "note": "(configuration not stated)", "values": [{"measurement": "carcinogen call", "setting": "Species: MOUSE, Strain/Sex: B6C3F1/FEMALE, Route: GAVAGE, Dose: 0, 2500, 5000 MG/KG IN CORN OIL 5 D/WK FOR 103 WK (STUDY DURATION: 103 WK), Dose: 0, 2500, 5000 MG/KG IN CORN OIL 5 D/WK FOR 103 WK (STUDY DURATION: 103 WK), Tumor Site: Type of Lesion: LIVER: HEPATOCELLULAR ADENOMA, HEPATOCELLULAR CARCINOMA", "result": "equivocal"}, {"measurement": "carcinogen call", "setting": "Species: MOUSE, Strain/Sex: B6C3F1/MALE, Route: GAVAGE, Dose: 0, 2500, 5000 MG/KG IN CORN OIL 5 D/WK FOR 103 WK (STUDY DURATION: 103 WK), Dose: 0, 2500, 5000 MG/KG IN CORN OIL 5 D/WK FOR 103 WK (STUDY DURATION: 103 WK), Tumor Site: Type of Lesion: HEMATOPOIETIC SYSTEM: MALIGNANT LYMPHOMA", "result": "active; positive"}, {"measurement": "carcinogen call", "setting": "Species: RAT, Strain/Sex: F344/FEMALE, Route: GAVAGE, Dose: 0, 100, 300, 900 MG/KG IN CORN OIL 5 D/WK FOR 103 WK (STUDY DURATION: 103 WK), Dose: 0, 100, 300, 900 MG/KG IN CORN OIL 5 D/WK FOR 103 WK (STUDY DURATION: 103 WK), Tumor Site: Type of Lesion: ADRENAL GLAND: MEDULLARY PHEOCHROMOCYTOMA", "result": "equivocal"}, {"measurement": "carcinogen call", "setting": "Species: RAT, Strain/Sex: F344/MALE, Route: GAVAGE, Dose: 0, 1875, 3750 MG/KG IN CORN OIL 5 D/WK FOR 103 WK (STUDY DURATION: 103 WK), Dose: 0, 1875, 3750 MG/KG IN CORN OIL 5 D/WK FOR 103 WK (STUDY DURATION: 103 WK)", "result": "inactive; negative"}]}, {"smiles": "CC(=O)[C@H]1CC[C@H]2[C@@H]3CCC4=CC(=O)CC[C@]4(C)[C@H]3CC[C@]12C", "values": [{"measurement": "carcinogen call", "setting": "Species: MOUSE, Route: SUBCUTANEOUS, Tumor Site: Type of Lesion: MAMMARY GLAND, OVARIES, UTERUS, Tumor Site: Type of Lesion: MAMMARY GLAND, OVARIES, UTERUS", "result": "active; positive"}]}, {"smiles": "O=[N+]([O-])c1ccc2ccc3c4ccccc4cc4ccc1c2c43", "values": [{"measurement": "carcinogen call", "setting": "Species: MOUSE, Strain/Sex: B6C3F1/MALE, Route: INTRAPERITONEAL, Dose: 0, 400 NMOL IN 35 µL DMSO ON DAYS 1 (1/7 TOTAL DOSE), 8 (2/7 TOTAL DOSE), AND 15 (4/7 TOTAL DOSE) AFTER BIRTH (STUDY DUR", "result": "inactive; negative"}, {"measurement": "carcinogen call", "setting": "Species: RAT, Strain/Sex: F344/MALE, Route: SUBCUTANEOUS, Dose: 0, 500, 1000 UG SUSPENDED IN BEESWAX/TRICAPRYLIN (1:1) ONCE (STUDY DURATION: LIFETIME), Dose: 0, 500, 1000 UG SUSPENDED IN BEESWAX/TRICAPRYLIN (1:1) ONCE (STUDY DURATION: LIFETIME)", "result": "inactive; negative"}]}, {"smiles": "Cn1c2ccccc2c2ccccc21", "values": [{"measurement": "carcinogen call", "setting": "Species: MOUSE, Strain/Sex: CD-1/FEMALE, Route: INTRAPERITONEAL, Dose: 0, 1.75 UMOL/MOUSE (TOTAL DOSE) ADMINISTERED DURING DAYS 1, 8, AND 15 OF LIFE (STUDY DURATION: 52 WK)", "result": "inactive; negative"}, {"measurement": "carcinogen call", "setting": "Species: MOUSE, Strain/Sex: CD-1/MALE, Route: INTRAPERITONEAL, Dose: 0, 1.75 UMOL/MOUSE (TOTAL DOSE) ADMINISTERED DURING DAYS 1, 8, AND 15 OF LIFE (STUDY DURATION: 52 WK)", "result": "inactive; negative"}]}]}
